Assay results as given in the supplement of paper PMC6045584.

Columns and labels:
Test in all cases: area under dose-response curve of surviving fraction (unscaled, Aref=0) (surviving fraction x log10(nM)); higher = more resistant
Settings in all cases: exposure time: 5 days; dose range 0.5-1000 nM
17-AAG = compound: C=CCNC1=C2C[C@@H](C)C[C@H](OC)[C@H](O)[C@@H](C)/C=C(\C)[C@H](OC(N)=O)[C@@H](OC)/C=C\C=C(/C)C(=O)NC(=CC1=O)C2=O [17-AAG]
How it was run: (§1)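 Three screens per tumour cell line were run in 384-well plates at eight inhibitor concentrations from 0.5 to 1000 nM over five days. Surviving fractions, from CellTiter-Glo luminescence normalised to DMSO-only wells, were fitted with 3-parameter logistic curves in the drc R package. The reported area under the curve is the unscaled activity area. It spans log10 dose, and Aref is 0.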

[1] = compound: CCN(CC)CCCCNc1ncc2cc(-c3cc(OC)cc(OC)c3)c(NC(=O)NC(C)(C)C)nc2n1
How it was run: as §1

SALINOMYCIN = compound: CC[C@@H](C(=O)[C@@H](C)[C@@H](O)[C@H](C)[C@@H]1O[C@@H]([C@@H](CC)C(=O)O)CC[C@@H]1C)[C@H]1O[C@]2(C=C[C@@H](O)[C@]3(CC[C@@](C)([C@H]4CC[C@](O)(CC)[C@H](C)O4)O3)O2)[C@H](C)C[C@@H]1C [SALINOMYCIN]
How it was run: as §1

ABT-737 = compound: CN(C)CC[C@H](CSc1ccccc1)Nc1ccc(S(=O)(=O)NC(=O)c2ccc(N3CCN(Cc4ccccc4-c4ccc(Cl)cc4)CC3)cc2)cc1[N+](=O)[O-] [ABT-737]
How it was run: as §1

FLAVOPIRIDOL = compound: CN1CC[C@H](c2c(O)cc(O)c3c(=O)cc(-c4ccccc4Cl)oc23)[C@H](O)C1 [FLAVOPIRIDOL]
How it was run: as §1

2-METHOXYESTRADIOL = compound: COc1cc2c(cc1O)CC[C@@H]1[C@@H]2CC[C@]2(C)[C@@H](O)CC[C@@H]12 [2-METHOXYESTRADIOL]
How it was run: as §1

NUTLIN3 = compound: COc1ccc(C2=N[C@@H](c3ccc(Cl)cc3)[C@@H](c3ccc(Cl)cc3)N2C(=O)N2CCNC(=O)C2)c(OC(C)C)c1 [NUTLIN3]
How it was run: as §1

DOXORUBICIN = compound: COc1cccc2c1C(=O)c1c(O)c3c(c(O)c1C2=O)C[C@@](O)(C(=O)CO)C[C@@H]3O[C@H]1C[C@H](N)[C@H](O)[C@H](C)O1 [DOXORUBICIN]
How it was run: as §1

VISMODEGIB = compound: CS(=O)(=O)c1ccc(C(=O)Nc2ccc(Cl)c(-c3ccccn3)c2)c(Cl)c1 [VISMODEGIB]
How it was run: as §1

RESVERATROL = compound: Oc1ccc(/C=C/c2cc(O)cc(O)c2)cc1 [RESVERATROL]
How it was run: as §1

FLUOROURACIL = compound: O=c1[nH]cc(F)c(=O)[nH]1 [FLUOROURACIL]
How it was run: as §1

LAPATINIB = compound: CS(=O)(=O)CCNCc1ccc(-c2ccc3ncnc(Nc4ccc(OCc5cccc(F)c5)c(Cl)c4)c3c2)o1 [LAPATINIB]
How it was run: as §1

DECITABINE = compound: Nc1ncn([C@H]2C[C@H](O)[C@@H](CO)O2)c(=O)n1 [DECITABINE]
How it was run: as §1

Test System	area under dose-response curve (17-AAG)	area under dose-response curve [1]	area under dose-response curve (SALINOMYCIN)	area under dose-response curve (ABT-737)	area under dose-response curve (FLAVOPIRIDOL)	area under dose-response curve (2-METHOXYESTRADIOL)	area under dose-response curve (NUTLIN3)	area under dose-response curve (DOXORUBICIN)	area under dose-response curve (VISMODEGIB)	area under dose-response curve (RESVERATROL)	area under dose-response curve (FLUOROURACIL)	area under dose-response curve (LAPATINIB)	area under dose-response curve (DECITABINE)
CHLA90 AUTONOMIC GANGLIA	2.06	2.92	2.67	3.26	2.36	3.22	3.33	1.8	3.12	3.38			
SCC47 HEADNECK	2.29	3.33	3.07	3.89	2.12	3.24	3.66	2.27	3.19	3.79	3.44		
SAOS2 BONE	1.66	3.79	3.15	3.87	2.19		3.66	1.85	3.12	4.04	2.91	3.95	3.06
ASKA SYNOVIAL	1.27		3.15		2.27	3.04		0.989	3.21	3.84		3.82	3.08
SG27 HEADNECK	2.94	3.03	2.95		2.29	3.61		2.61	3.18	3.59	3.48		3.79
BT549 BREAST	1.1		2.75		2.02	3.02	3.68	1.41	2.93	3.52	2.98	3.45	2.69
SG43 HEADNECK	1.77	3.03	3.03	2.77	2.35	2.84	2.8	1.71		2.91	3.27	2.24	
MDAMB157 BREAST	1.61	2.73	2.66	3.26	2.21	3.1	3.22	1.21	3.26	3.39		3.27	2.4
SJSA1 BONE	1.72	3.48	2.91	5.63	2.96	5.58	3.18	1.9	3.35	5.61		5.27	4.52
93VU HEADNECK	2.32		2.79		2.13	3.08	3.56	2.39		3.7	3.04	2.8	3.07
LNCAP PROSTATE	1.33	2.96	1.9	3.07	1.78	2.89	2.82	1.09		3.05		3.12	2.75
CME SYNOVIAL	1.9	3.88	2.88	4.41	2.35		4.32	1.52	3.77	4.4		4.25	2.82
OSHN BONE	2.3	3.35	2.81	3.58	2.31	3.21	3.52	1.98	3.27	3.6		3.55	3.71
SUM149.B1*.S BREAST	1.93		2.9	3.79	2.37	3.49	3.61	2		3.7			
YAMATO SYNOVIAL	2.65	3.96	2.25	4.34	2.38	3.05	4.58	2.03			3	4.08	
MDAMB453 BREAST	1.3	3.28	3.04	3.59	2.12	3.02	3.54	2.24	3.16	3.63	3.14	3.21	
VCAP PROSTATE	2.25	3.48	2.89	3.49	2.26	3.12	3.78	2.3	3.36	3.11		3.07	3.68
VP229 BREAST	1.93	3.78	2.4	3.82	2.08	3.43	3.5	2.61	3.65		2.98	3.02	
HCT15 LARGE INTESTINE	1.85	3.28	2.74	3.46	2.01	2.65	3.38	2.07	3.26	3.39	2.73		3.19
HUO3N1 BONE	2.3	3.05	2.41		2.49	3.2	3.41	2		3.49	3.28	3.26	
JURKAT HAEMATOPOIETIC AND LYMPHOID TISSUE	2.65	3.44	2.52	3.08	2.12	2.65	3.49	1.12		3.34		3.21	1.56
HCC78 LUNG	1.44	3.12	2.33		1.62	2.57	3.02	1.2	3.52		3.24	2.99	2.49
HCC202 BREAST	1.59	4.1	2.48				3.88	2.27	3.06				

Test System	area under dose-response curve (17-AAG)	area under dose-response curve [1]	area under dose-response curve (SALINOMYCIN)	area under dose-response curve (ABT-737)	area under dose-response curve (FLAVOPIRIDOL)	area under dose-response curve (2-METHOXYESTRADIOL)	area under dose-response curve (NUTLIN3)	area under dose-response curve (DOXORUBICIN)	area under dose-response curve (VISMODEGIB)	area under dose-response curve (RESVERATROL)	area under dose-response curve (FLUOROURACIL)	area under dose-response curve (LAPATINIB)	area under dose-response curve (DECITABINE)
BT20 BREAST	1.37	3.96	3.84		2.22		3.59	1.48	3.18	3.71		3.84	4.16
U2OS BONE	2.13	3	3.16	3.49	2.2	3.08	3.28	1.98	3.48	3.48	3.18		3.01
SG31 HEADNECK	1.94	3.09	2.81	3.88	2.03	3.42	3.23	2.02	3.05				
OS25HAL BONE	2.56	3.27	2.57	3.39	2.25	3.02	3.29	1.87	3.29	3.4		3.47	3.53
SCC36 HEADNECK	1.66		2.7	3.58	2.3		3.65	1.98	2.89	3.87	2.79	2.91	3.08
SUM44 BREAST	2.02	3.27	3.22		2.36		3.26	2.59	3.11	3.94	3.15	3.72	3.87
SG32 HEADNECK	1.96	3.36	2.42	3.48	1.72	2.92	3.75	1.68		3.38		3.6	
SUM159 BREAST	1.72	3.75	2.31		2.38	3.24	3.27	1.84		3.53	3.29	3.55	3.48
NY BONE	1.6	2.65	2.53	3.42	2.12	2.83	3.28	1.85	3.28	3.32		3.43	2.91
RDES SOFT TISSUE	2.13	3.98	2.26	2.58	2.51		3.98	1.97		4.59	3.48	4.08	3.9
SNU475 LIVER	1.66	3.01	2.58	3.39	2.33	3.26	3.32	2.22	3.06	3.3	3.03		3.4
ZR751 BREAST	1.74	3.3	2.67	3.53	2.38			2.06	2.87	3.31		2.92	
22RV1 PROSTATE	2.24	3.33	2.38		2.35		3.26	1.31	3.35	3.4	3.25	3.42	2.81
HT1080 SOFT TISSUE	2.11	3.39	3.16		2.07	3.11	3.11	1.29	3.25	3.35	3.06	3.4	3.03
SG28 HEADNECK	1.95	3.28	2.71				3.29	2.4	3				
NCIH441 LUNG	2.37	3.37	3.12		2.48	3.22	3.56	2.15	3.27	3.72		3.58	2.57
SIHA CERVIX	2.23	3.08	2.93	3.73	2.19	3.15	3.54	2.16		3.61		3.53	3.46
MDAMB468 BREAST	2.41	3.27	3.08	3.62	2.15	3.5	3.39	2.09	3.19	3.56	2.83		2.63
143B BONE	2.38	3.04	3.23				3.5	2.11	3.22				
CADOES1 SOFT TISSUE	2.76	3.03	2.37	2.63	1.8	3.23	2.81	1.99	3.17	3.21	3.05		2.23
NOS1 BONE	1.6	3.02	2.83	3.75	2.06		3.66	2.15		3.77		3.54	3.34
S68 BREAST	0.636	3.23	2.67	3.67	2.32	3.07	3.12	1.32	3.02	3.12	2.83		2.84
